In PubChem BioAssay (NCI):
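These data come from cells grown in 96-well plates and exposed to compound for 48 hours at five concentrations. GI50 is the concentration that inhibits growth by half. At the TGI there is no net growth.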

Experiments:
Assay in all cases: DTP human tumour cell line panel, 48 h
A549 NSCLC = system: A549 NSCLC
HOP-92 NSCLC = system: HOP-92 NSCLC
COLO 205 colon = system: COLO 205 colon
OVCAR-4 ovarian = system: OVCAR-4 ovarian
ACHN renal = system: ACHN renal
SN12C renal = system: SN12C renal
KM12 colon = system: KM12 colon
UACC-62 melanoma = system: UACC-62 melanoma
SK-MEL-5 melanoma = system: SK-MEL-5 melanoma
HCT-116 colon = system: HCT-116 colon

Structure (SMILES)	TGI (A549 NSCLC)	TGI (HOP-92 NSCLC)	TGI (COLO 205 colon)	TGI (OVCAR-4 ovarian)	TGI (ACHN renal)	TGI (SN12C renal)	TGI (KM12 colon)	TGI (UACC-62 melanoma)	TGI (SK-MEL-5 melanoma)	TGI (HCT-116 colon)	GI50 (A549 NSCLC)	GI50 (HOP-92 NSCLC)	GI50 (COLO 205 colon)	GI50 (OVCAR-4 ovarian)	GI50 (ACHN renal)	GI50 (SN12C renal)	GI50 (KM12 colon)	GI50 (UACC-62 melanoma)	GI50 (SK-MEL-5 melanoma)	GI50 (HCT-116 colon)
CC(C)c1cccc(C(C)C)c1NC(=O)C(=O)CC(=O)CC(c1ccccc1)c1c(O)c2ccccc2oc1=O (centres undefined)	> 100 µM	> 100 µM	> 100 µM	> 100 µM	> 100 µM	> 100 µM	> 100 µM	> 100 µM	> 100 µM	> 100 µM	–	–	–	–	–	–	–	–	–	–
CNS(=O)(=O)c1ccccc1C(=N)c1ccccc1	> 100 µM	> 100 µM	> 100 µM	> 100 µM	> 100 µM	> 100 µM	> 100 µM	> 100 µM	> 100 µM	> 100 µM	–	–	–	–	–	–	–	–	–	–
CCCCCCCCCCCCOC1C(CNCC2OC3OC(C)(C)OC3C2NC(=O)Nc2ccc(C(F)(F)F)cc2)OC2OC(C)(C)OC21 (centres undefined)	22 µM	14.4 µM	7.32 µM	13.2 µM	14 µM	15.3 µM	8.45 µM	15.9 µM	15.1 µM	4.7 µM	8.53 µM	7.4 µM	3.26 µM	5.43 µM	7.05 µM	7.04 µM	3.7 µM	8.63 µM	8.15 µM	2.46 µM
CN(C)CCN1C(=O)c2cccc3c(N)ccc(c23)C1=O	> 25 µM	> 25 µM	> 25 µM	> 25 µM	> 25 µM	> 25 µM	> 25 µM	> 25 µM	> 25 µM	> 25 µM	9.04 µM	19.4 µM	8.18 µM	14.1 µM	7.9 µM	10 µM	14.2 µM	7.39 µM	9.13 µM	9.49 µM
Cc1cc(C(=O)N[C@@H](CCC(=O)O)C(=O)O)sc1CC[C@@H]1CNc2nc(N)[nH]c(=O)c2C1	> 100 µM	> 100 µM	> 100 µM	> 100 µM	> 100 µM	> 100 µM	> 100 µM	> 100 µM	> 100 µM	> 100 µM	0.0436 µM	0.0592 µM	0.0309 µM	23.3 µM	< 0.01 µM	0.0253 µM	0.046 µM	0.0378 µM	0.0679 µM	< 0.0127 µM
O=[N+]([O-])c1cccc(/C=C/c2ccccn2)c1	> 100 µM	> 100 µM	95.5 µM	> 100 µM	> 100 µM	> 100 µM	> 100 µM	> 100 µM	> 100 µM	> 100 µM	27.9 µM	24.3 µM	24.3 µM	18.8 µM	5.81 µM	38.8 µM	24.2 µM	60 µM	28.7 µM	7.02 µM
CCOc1ccccc1NC(=O)C(=O)C(C(=O)c1ccc2ccccc2c1)C1OC(=O)c2ccccc21 (centres undefined)	98.2 µM	38.1 µM	29.7 µM	24.6 µM	> 100 µM	37.4 µM	59.5 µM	21.3 µM	24.5 µM	22.3 µM	–	–	–	–	–	–	–	–	–	–
C[n+]1c2cc(N)ccc2cc2ccc(N)cc21 (tested in a mixture with another compound)	10.1 µM	1.09 µM	1.3 µM	2.68 µM	3.59 µM	1.75 µM	1.37 µM	1.94 µM	2.25 µM	–	0.0749 µM	0.273 µM	0.148 µM	0.646 µM	0.304 µM	0.326 µM	0.21 µM	0.435 µM	0.616 µM	0.345 µM
C[C@@H]1[C@H]2[C@H](C=C3[C@@H]4CC[C@H]5Cc6nc7c(nc6C[C@]5(C)[C@H]4C[C@@H](O)[C@@]32C)C[C@@H]2CC[C@H]3C4=C[C@@H]5O[C@@]6(CC[C@](C)(CO)O6)[C@@H](C)[C@@]5(O)[C@@]4(C)[C@H](O)C[C@@H]3[C@@]2(C)C7)O[C@]12CCC(C)(C)O2	14.6 µM	13.3 µM	0.926 µM	> 69.7 µM	> 100 µM	> 70.3 µM	16.2 µM	2.54 µM	5.2 µM	31.2 µM	0.809 µM	0.716 µM	0.292 µM	7.05 µM	0.843 µM	11.6 µM	0.73 µM	0.348 µM	0.783 µM	0.69 µM
CCN1/C(=C/C=C/C=C/c2sc3ccccc3[n+]2CC)Sc2ccccc21	2.59 µM	3.27 µM	0.347 µM	2.51 µM	3.28 µM	1.76 µM	1.4 µM	1.88 µM	1.42 µM	0.828 µM	0.332 µM	0.32 µM	0.191 µM	0.261 µM	0.566 µM	0.327 µM	0.378 µM	0.512 µM	0.314 µM	0.181 µM
O=C1OCC2=C1C(c1cccc(C(F)(F)F)c1)c1cc3c(cc1N2CCO)OCO3 (centres undefined)	> 50 µM	> 50 µM	3.26 µM	> 50 µM	> 50 µM	> 50 µM	> 50 µM	> 50 µM	15.9 µM	> 50 µM	2.9 µM	2.03 µM	1.18 µM	2.49 µM	3.09 µM	2.9 µM	1.88 µM	1.14 µM	0.937 µM	0.408 µM
O=C(N[C@@H]1C=CCC[C@@H]1c1ccccc1)OCc1ccccc1	> 69.6 µM	32.1 µM	33.1 µM	42.4 µM	64.7 µM	31.1 µM	33.9 µM	28 µM	33.3 µM	34.6 µM	–	–	–	–	–	–	–	–	–	–
COc1cc2cn3c4ccc(O)cc4nc(N)c3c2cc1OC	12.9 µM	8.06 µM	6.6 µM	12.4 µM	2.77 µM	13 µM	4.48 µM	1.63 µM	0.505 µM	1.72 µM	0.839 µM	0.669 µM	0.342 µM	0.651 µM	0.191 µM	0.295 µM	0.885 µM	0.0705 µM	0.0734 µM	0.0931 µM
O=C(CCc1ccco1)NC1CCN(CC2(c3ccc(Cl)cc3)CCC2)CC1	32.5 µM	20.3 µM	31.8 µM	39.2 µM	22.7 µM	33.1 µM	31.5 µM	30.8 µM	28.7 µM	24.5 µM	14.6 µM	4.69 µM	15.3 µM	10.3 µM	10.5 µM	15.4 µM	15.3 µM	15.9 µM	15.2 µM	12.2 µM
